Results on 4 sequences are retold here after article PMC2248166, “Quantitative peptide binding motifs for 19 human and mouse MHC class I molecules derived using positional scanning combinatorial peptide libraries” (Immunome Research, 2008).

For assay [1], the target named is HLA A*3001 (Homo sapiens, UniProt P04439, D140H/D185E/E176W/F33S/G80R/H175R/K168Q/R138E/R41S). Nature of the assay: biochemical. Type of assay: binding.
The target in assay [2] is HLA A*3201 (Homo sapiens, UniProt P04439, A270S/D101S/D185E/E176V/E277Q/F133L/G103R/G107R/G231S/H175R/I121M/I218V/I322F/K168Q/L105A/L300P/L318F/M331R/P208A/P217A/Q94H/R106L/R138Q/S129P/T104I/T323A/T345S/V100E/V321M/V358M). Nature of the assay: biochemical. The format is binding.
The target of assay [3] is HLA A*6802 (Homo sapiens, UniProt P04439, A269V/D140Y/D185E/E176V/E277Q/E87N/F33Y/G231S/I121R/I166T/I218V/L180W/L300P/L318F/N151K/P208A/P217A/Q86R/R138H/R169H/S129P/T345S/V36M). Type of assay: binding.
Assay [4] addresses HLA B*0702 (Homo sapiens, UniProt P01889). The format is binding. As to conditions: positional scanning combinatorial 9-mer library; normalized to 1.0 for the best residue at each position.
In assay [5] the target is HLA B*0801 (Homo sapiens, UniProt P01889, A93T/A95T/D138N/E176V/E187T/K202T/Q94N/R180D/S35A/V36M/Y33D/Y91F). Nature of the assay: biochemical. The format is binding.
Assay [6] has as its target HLA B*1501 (Homo sapiens, UniProt P01889, A329T/A93T/A95T/C349S/D201E/D98Y/E187L/E204Q/E69M/E70A/K202T/N87E/Q94N/R155S/R180W/S121R/S35A/S48A/V306I/V36M/Y140S/Y91S). Nature of the assay: biochemical. Type of assay: binding.
Assay [7] concerns the target HLA B*1503 (Homo sapiens, UniProt P01889, A329T/A93T/A95T/C349S/D201E/D98Y/E187L/E204Q/K202T/N87E/Q94N/R155S/R180L/S121R/S35A/V306I/V36M/Y140S/Y91S). Nature of the assay: biochemical. The format is binding.
Assay [8] deals with HLA B*2705 (Homo sapiens, UniProt P01889, D138H/D201E/E176V/E204Q/G107R/H137Y/K202T/N104T/N87E/Q56L/Q94K/R106L/R155S/R180L/S101D/S121N/S48T/Y140D/Y33H/Y91C). The format is binding. As to conditions: positional scanning combinatorial 9-mer library; normalized to 1.0 for the best residue at each position.
Assay [9] concerns the target HLA B*3501 (Homo sapiens, UniProt P01889, A329T/A93T/A95T/C349S/D201E/D98Y/E176V/E187L/E204Q/E69T/I218V/K202T/L119I/Q94N/R155S/R180L/S121R/S35A/S48A/T118I/V127L/V306I/V36M/Y140S/Y91F). The format is binding.
Assay [10] addresses HLA B*5101 (Homo sapiens, UniProt P01889, A329T/A93T/A95T/C349S/D138N/D201E/D98Y/E187L/E204Q/E69T/G107R/I218V/K202T/L105A/L119W/N104I/Q94N/R106L/R155S/R180L/S101N/S121T/S35A/S48A/V306I/V36M/Y195H/Y91F). The format is binding.
Assay [11] concerns the target HLA B*5301 (Homo sapiens, UniProt P01889, A329T/A93T/A95T/C349S/D201E/D98Y/E176V/E187L/E204Q/E69T/G107R/I218V/K202T/L105A/L119I/N104I/Q94N/R106L/R155S/R180L/S101N/S121R/S35A/S48A/T118I/V127L/V306I/V36M/Y140S/Y91F). The format is binding.
The target of assay [12] is HLA B*5401 (Homo sapiens, UniProt P01889, A329T/C349S/D138N/D201E/E176V/E187T/E204Q/E69G/I76V/K202T/L119W/R155S/R180L/S121T/S35A/S48A/V127L/V306I/V36M/Y140L). The format is binding.
The target of assay [13] is HLA B*5801 (Homo sapiens, UniProt P01889, A329T/C349S/D201E/D98Y/E176V/E187L/E204Q/E69T/G107R/I218V/I90N/K202T/L105A/L119I/N104I/N87E/Q89R/Q94S/R106L/R155S/R180L/R86G/S101N/S121R/S35A/S48A/T118I/V127L/V306I/V36M/Y140S/Y91M). The format is binding.
For assay [14], the target named is HLA B*5802 (Homo sapiens, UniProt P01889, A329T/C349S/D201E/D98Y/E176V/E187L/E204Q/E69T/G107R/I218V/I90N/K202T/L105A/N104I/N87E/Q89R/Q94S/R106L/R155S/R180L/R86G/S101N/S121W/S35A/S48A/V127L/V306I/V36M/Y140S/Y91M). The format is binding.
Assay [15] deals with H-2 D^b (Mus musculus, UniProt P01899). Type of assay: binding.
Chain of H-2 D^b (P01887 21-119): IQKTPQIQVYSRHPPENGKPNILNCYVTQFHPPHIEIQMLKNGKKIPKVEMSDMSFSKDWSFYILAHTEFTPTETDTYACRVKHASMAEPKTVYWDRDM
Chain of H-2 D^b (P01899 25-362): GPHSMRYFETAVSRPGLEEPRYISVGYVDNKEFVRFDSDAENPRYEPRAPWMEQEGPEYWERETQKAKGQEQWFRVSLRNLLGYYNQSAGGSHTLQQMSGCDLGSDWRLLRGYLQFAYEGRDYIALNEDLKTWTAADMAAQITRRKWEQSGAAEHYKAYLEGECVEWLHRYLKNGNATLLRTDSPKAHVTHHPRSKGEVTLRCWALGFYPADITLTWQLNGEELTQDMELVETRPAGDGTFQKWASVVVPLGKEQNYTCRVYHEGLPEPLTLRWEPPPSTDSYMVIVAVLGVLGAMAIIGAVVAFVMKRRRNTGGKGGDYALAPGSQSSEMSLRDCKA
The target in assay [16] is H-2 D^d (Mus musculus, UniProt P01900). Type of assay: binding.
Chain of H-2 D^d (P01900 whole entry, looked up): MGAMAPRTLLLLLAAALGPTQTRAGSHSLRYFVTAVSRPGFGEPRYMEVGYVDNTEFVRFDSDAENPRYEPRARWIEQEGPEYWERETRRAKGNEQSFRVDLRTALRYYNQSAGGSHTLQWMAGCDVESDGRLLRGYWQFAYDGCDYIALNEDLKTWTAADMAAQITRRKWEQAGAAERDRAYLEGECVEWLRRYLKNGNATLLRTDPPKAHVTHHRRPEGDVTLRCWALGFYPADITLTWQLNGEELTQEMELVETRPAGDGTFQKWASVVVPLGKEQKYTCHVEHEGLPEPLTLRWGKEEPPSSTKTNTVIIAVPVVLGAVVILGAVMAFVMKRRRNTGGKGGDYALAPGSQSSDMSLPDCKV
Assay [17] concerns the target H-2 K^k (Mus musculus, UniProt P04223). The format is binding.
Assay [18] concerns the target HLA A*0201 (Homo sapiens, UniProt P04439, D140Y/D185E/D98H/E176V/E277Q/G131W/G231S/I119V/I121R/I166T/I218V/L300P/L318F/N151K/N90K/P208A/P217A/Q86G/Q94H/R138H/R169H/T345S). The settings on record: positional scanning combinatorial 9-mer library; normalized to 1.0 for the best residue at each position.

Chain of H-2 K^k (P01887 21-119): as the sequence (P01887 21-119) above
Chain of H-2 K^k (P04223 22-369): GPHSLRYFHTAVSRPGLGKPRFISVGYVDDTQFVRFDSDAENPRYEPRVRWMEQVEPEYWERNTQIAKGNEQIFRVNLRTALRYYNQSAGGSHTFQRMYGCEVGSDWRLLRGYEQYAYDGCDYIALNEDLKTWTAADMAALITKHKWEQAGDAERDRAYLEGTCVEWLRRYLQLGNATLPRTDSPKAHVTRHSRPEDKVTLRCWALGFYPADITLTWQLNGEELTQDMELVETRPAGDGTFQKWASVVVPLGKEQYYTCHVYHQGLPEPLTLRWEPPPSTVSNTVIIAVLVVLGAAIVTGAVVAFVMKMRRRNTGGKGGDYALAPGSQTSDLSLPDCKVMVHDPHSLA

Consider CXXXXXXXX [3064.0002], for which the “Normalized average relative binding affinity (ARB), HLA A*3001” value in assay [1] was 0.097. Also, the “Normalized average relative binding affinity (ARB), HLA A*3201” value in assay [2] amounted to 0.11. Further, the “Normalized average relative binding affinity (ARB), HLA A*6802” value in [3] is given as 0.13. In addition, the “Normalized average relative binding affinity (ARB), HLA B*0702” value in assay [4] is 0.19. Further, the “Normalized average relative binding affinity (ARB), HLA B*0801” value in assay [5] is recorded as 0.16. The “Normalized average relative binding affinity (ARB), HLA B*1501” value in assay [6] is reported as 0.19. Moreover, in assay [7], the “Normalized average relative binding affinity (ARB), HLA B*1503” value came out at 0.20. The “Normalized average relative binding affinity (ARB), HLA B*2705” value in assay [8] came to 0.11. Further, in assay [9], the “Normalized average relative binding affinity (ARB), HLA B*3501” value was 0.19. Moreover, the “Normalized average relative binding affinity (ARB), HLA B*5101” value in [10] is 0.19. For the same sequence, the “Normalized average relative binding affinity (ARB), HLA B*5301” value in [11] was 0.061. Besides, the “Normalized average relative binding affinity (ARB), HLA B*5401” value in assay [12] is given as 0.027. For the same sequence, the “Normalized average relative binding affinity (ARB), HLA B*5801” value in [13] is recorded as 0.18. The “Normalized average relative binding affinity (ARB), HLA B*5802” value in assay [14] turned out to be 0.048. Further, the “Normalized average relative binding affinity (ARB), H-2 Db” value in assay [15] is 0.16. In [16], the “Normalized average relative binding affinity (ARB), H-2 Dd” value worked out at 0.26. Besides, the “Normalized average relative binding affinity (ARB), H-2 Kk” value in assay [17] turned out to be 0.51. Moreover, the “Normalized average relative binding affinity (ARB), HLA A*0201” value in assay [18] amounted to 0.032.
With XAXXXXXXX [3064.0021], in assay [1], the “Normalized average relative binding affinity (ARB), HLA A*3001” value amounted to 0.89. Besides, the “Normalized average relative binding affinity (ARB), HLA A*3201” value in assay [2] came to 0.11. The “Normalized average relative binding affinity (ARB), HLA A*6802” value in assay [3] turned out to be 0.12. Besides, the “Normalized average relative binding affinity (ARB), HLA B*0702” value in assay [4] turned out to be 0.086. Besides, in assay [5], the “Normalized average relative binding affinity (ARB), HLA B*0801” value is 0.41. Also, the “Normalized average relative binding affinity (ARB), HLA B*1501” value in [6] was 0.57. Besides, in assay [7], the “Normalized average relative binding affinity (ARB), HLA B*1503” value came out at 0.13. In addition, in [8], the “Normalized average relative binding affinity (ARB), HLA B*2705” value is 0.0054. For the same sequence, in [9], the “Normalized average relative binding affinity (ARB), HLA B*3501” value came to 0.88. Moreover, in assay [10], the “Normalized average relative binding affinity (ARB), HLA B*5101” value was 0.54. The “Normalized average relative binding affinity (ARB), HLA B*5301” value in [11] is on record as 0.44. Also, the “Normalized average relative binding affinity (ARB), HLA B*5401” value in assay [12] worked out at 1.0. In assay [13], the “Normalized average relative binding affinity (ARB), HLA B*5801” value amounted to 0.48. Also, the “Normalized average relative binding affinity (ARB), HLA B*5802” value in assay [14] turned out to be 0.035. Besides, the “Normalized average relative binding affinity (ARB), H-2 Db” value in assay [15] came to 0.64. Also, in assay [16], the “Normalized average relative binding affinity (ARB), H-2 Dd” value came to 0.025. For the same sequence, the “Normalized average relative binding affinity (ARB), H-2 Kk” value in assay [17] is recorded as 0.047. In addition, the “Normalized average relative binding affinity (ARB), HLA A*0201” value in [18] amounted to 0.0018.
As to VXXXXXXXX [3064.0018], the “Normalized average relative binding affinity (ARB), HLA A*3001” value in assay [1] turned out to be 0.074. The “Normalized average relative binding affinity (ARB), HLA A*3201” value in assay [2] turned out to be 0.28. In addition, in assay [3], the “Normalized average relative binding affinity (ARB), HLA A*6802” value was found to be 0.038. The “Normalized average relative binding affinity (ARB), HLA B*0702” value in assay [4] worked out at 0.14. Also, in assay [5], the “Normalized average relative binding affinity (ARB), HLA B*0801” value is 0.047. Besides, the “Normalized average relative binding affinity (ARB), HLA B*1501” value in assay [6] was determined as 0.14. Also, the “Normalized average relative binding affinity (ARB), HLA B*1503” value in assay [7] stood at 0.22. In assay [8], the “Normalized average relative binding affinity (ARB), HLA B*2705” value was 0.16. Moreover, the “Normalized average relative binding affinity (ARB), HLA B*3501” value in assay [9] is 0.11. The “Normalized average relative binding affinity (ARB), HLA B*5101” value in assay [10] turned out to be 0.17. For the same sequence, the “Normalized average relative binding affinity (ARB), HLA B*5301” value in [11] is given as 0.018. Besides, the “Normalized average relative binding affinity (ARB), HLA B*5401” value in [12] is 0.032. Also, the “Normalized average relative binding affinity (ARB), HLA B*5801” value in assay [13] turned out to be 0.74. Besides, the “Normalized average relative binding affinity (ARB), HLA B*5802” value in assay [14] was 0.21. Besides, the “Normalized average relative binding affinity (ARB), H-2 Db” value in assay [15] was determined as 0.094. For the same sequence, the “Normalized average relative binding affinity (ARB), H-2 Dd” value in assay [16] is recorded as 0.80. Further, in assay [17], the “Normalized average relative binding affinity (ARB), H-2 Kk” value is 0.13. In addition, the “Normalized average relative binding affinity (ARB), HLA A*0201” value in assay [18] is recorded as 0.062.
As for XXTXXXXXX [3064.0057], in assay [1], the “Normalized average relative binding affinity (ARB), HLA A*3001” value worked out at 0.0040. Moreover, in assay [2], the “Normalized average relative binding affinity (ARB), HLA A*3201” value turned out to be 0.16. Moreover, in assay [3], the “Normalized average relative binding affinity (ARB), HLA A*6802” value was determined as 0.14. Further, the “Normalized average relative binding affinity (ARB), HLA B*0702” value in assay [4] was determined as 0.035. In assay [5], the “Normalized average relative binding affinity (ARB), HLA B*0801” value turned out to be 0.054. In assay [6], the “Normalized average relative binding affinity (ARB), HLA B*1501” value turned out to be 0.12. Moreover, the “Normalized average relative binding affinity (ARB), HLA B*1503” value in assay [7] is 0.23. Besides, the “Normalized average relative binding affinity (ARB), HLA B*2705” value in assay [8] is reported as 0.26. The “Normalized average relative binding affinity (ARB), HLA B*3501” value in assay [9] was 0.14. The “Normalized average relative binding affinity (ARB), HLA B*5101” value in assay [10] was found to be 0.14. In addition, the “Normalized average relative binding affinity (ARB), HLA B*5301” value in assay [11] worked out at 0.045. Moreover, the “Normalized average relative binding affinity (ARB), HLA B*5401” value in [12] was 0.012. Moreover, the “Normalized average relative binding affinity (ARB), HLA B*5801” value in assay [13] came to 0.39. Besides, the “Normalized average relative binding affinity (ARB), HLA B*5802” value in [14] amounted to 0.16. The “Normalized average relative binding affinity (ARB), H-2 Db” value in assay [15] is reported as 0.057. The “Normalized average relative binding affinity (ARB), H-2 Dd” value in [16] came to 0.0048. The “Normalized average relative binding affinity (ARB), H-2 Kk” value in assay [17] turned out to be 0.11. Further, in assay [18], the “Normalized average relative binding affinity (ARB), HLA A*0201” value was 0.14.
